Laboratory results published in patent US20230172204A1 (BASF SE, priority 2020, published 2023).

What was measured:
[1] = test system: Phakopsora pachyrhizi (F129L); assay: Protective control of soybean rust on soybeans (PHAKPA P2); format: in vivo
[2] = test system: Pyrenophora teres (wt); assay: Micro titer plate test against Pyrenophora teres causing net blotch on barley (PYRNTE wt); format: cell-based; conditions: 168 h, 0.25 ppm, read-out: Fungal growth (%) PYRNTE wt
[3] = test system: Microdochium nivale; assay: Micro titer plate test against Microdochium nivale causing snow mould (MONGNI); format: cell-based; conditions: Microdochium nivale, 168 h; 0.016 ppm; read-out: Fungal growth (%) MONGNI
[4] = test system: Leptosphaeria nodorum; assay: Micro titer plate test against Leptosphaeria nodorum causing wheat leaf spots (LEPTNO); format: cell-based; conditions: Parastagonospora nodorum, 168 h; 0.063 ppm; read-out: Fungal growth (%) LEPTNO
[5] = test system: Alternaria solani (wt); assay: microbe, parasite or virus in culture; format: cell-based; conditions: Alternaria solani, 168 h; 0.016 ppm; read-out: Fungal growth (%) ALTESO wt
[6] = test system: Alternaria solani (F129L); assay: Micro titer plate test against Alternaria solani causing early blight (ALTESO F129L); format: cell-based; conditions: Alternaria solani, 168 h; 0.016 ppm; read-out: Fungal growth (%) ALTESO F129L
[7] = test system: Cercospora sojina; assay: microbe, parasite or virus in culture; format: cell-based; conditions: Cercospora sojina, 168 h; 4 ppm; read-out: Fungal growth (%) CERCSO
[8] = test system: Septoria tritici; assay: microbe, parasite or virus in culture; format: cell-based; conditions: Zymoseptoria tritici, 168 h, read-out: Fungal growth (%) SEPTTR
[9] = test system: Phakopsora pachyrhizi (F129L); assay: Protective control of soybean rust on soybeans (PHAKPA P6); format: in vivo; conditions: soybean rust F129L
[10] = test system: Colletotrichum orbiculare; assay: Micro titer plate test against Colletotrichum orbiculare causing anthracnose (COLLLA); format: cell-based; conditions: Colletotrichum orbiculare, 168 h, read-out: Fungal growth (%) COLLLA
[11] = test system: Pyricularia oryzae; assay: microbe, parasite or virus in culture; format: cell-based; conditions: Pyricularia oryzae, 168 h, read-out: Fungal growth (%) PYRIOR
[12] = test system: Pyrenophora teres (F129L); assay: Micro titer plate test against Pyrenophora teres causing net blotch on barley (PYRNTE F129L); format: cell-based; conditions: 0.25 ppm

## CO/N=C(/C(=O)OC)c1cccc(C)c1CO/N=C(\C)c1cccc(C)c1 [Ex. 76]
[1]; P2 protective, 4 ppm, % diseased leaf area
  PHAKPA (F129L) Disease level (%) P2 at 4 ppm: 35%
[1]; P2 protective, 16 ppm, % diseased leaf area
  PHAKPA (F129L) Disease level (%) P2 at 16 ppm: 1%
[1]; protective P2, 4 ppm, soybean rust F129L
  % PHAKPA (F129L) Disease level P2 at 4 ppm: 30%
[1]; protective P2, 16 ppm, soybean rust F129L
  % PHAKPA (F129L) Disease level P2 at 16 ppm: 3%
[2]
  activity at 0.25 ppm: 39%
[3]
  activity at 0.016 ppm: 35%
[4]
  activity at 0.063 ppm: 39%
[5]
  activity at 0.016 ppm: 55%
[6]
  activity at 0.016 ppm: 37%
[7]
  activity at 4 ppm: 28%
[8]
  activity at 0.25 ppm: 0%
[9]; protective P6, 4 ppm
  % PHAKPA (F129L) Disease level P6 at 4 ppm: 9%
[9]; protective P6, 16 ppm
  % PHAKPA (F129L) Disease level P6 at 16 ppm: 0%
[10]
  activity at 0.063 ppm: 39%
[11]
  activity at 0.016 ppm: 43%
[12]
  Fungal growth (%) PYRNTE F129L: 66%
